What all share (experiment): agar dilution test (MIC)
Format in all cases: cell-based
For orientation: In agar dilution, organisms are placed on agar that contains the substance at set levels.

For experiment [1], the system named is Str.pyogenes 308A. The note with it: Streptococcus pyogenes, Mueller Hinton agar, 16 to 18 hours at 37°C, read-out: Minimum Inhibitory Concentration (MIC). How it is done: (§1) The antimicrobial activity was determined by measuring the Minimum Inhibitory Concentration (MIC). The MIC of the compounds was determined by a standard test, the "agar dilution test" according to Lorian (Antibiotics in Laboratory Medicine, Williams and Wilkins, Baltimore/London 1980) as follows:
(§2) A two-fold decreasing concentration series of each compound was prepared in Petri dishes containing 15 ml of Mueller Hinton agar (Difco). One Petri dish containing only the Mueller Hinton agar served as control for bacterial growth. Each Petri dish was inoculated with a multi-point inoculator (Denley), which transferred 0.6µl of a 1:100 diluted 18 hours culture of the appropriate test bacterium. After 16 to 18 hours of incubation at 37°C the Petri dishes were examined for growth of bacteria. The lowest concentration of the compound which causes complete inhibition of growth is taken as the MIC except that the growth of a single colony or a haze is not taken as evidence of qrowth.

Experiment [2] deals with Staph.aureus 503. The note with it: Staphylococcus aureus, Mueller Hinton agar, 16 to 18 hours at 37°C, read-out: Minimum Inhibitory Concentration (MIC). How it is done: as §1, §2
The test system of experiment [3] is Bac.subt. ATCC6633. To be noted: Mueller Hinton agar, 16 to 18 hours at 37°C, read-out: Minimum Inhibitory Concentration (MIC). How it is done:
as §1, §2

Experiment [4] concerns Ent.cloacae P99. To be noted: Enterobacter cloacae, Mueller Hinton agar, 16 to 18 hours at 37°C, read-out: Minimum Inhibitory Concentration (MIC). How it is done:
as §1, §2

Experiment [5] concerns E.coli 1507E. To be noted: Escherichia coli, read-out: Minimum Inhibitory Concentration (MIC). How it is done:
as §1, §2

Experiment [6] concerns Salm.typh. MZII. The note with it: Mueller Hinton agar, 16 to 18 hours at 37°C, read-out: Minimum Inhibitory Concentration (MIC). As for the experimental part:
as §1, §2

For experiment [7], the system named is Staph.aureus SG511. To be noted: Staphylococcus aureus, Mueller Hinton agar, 16 to 18 hours at 37°C, read-out: Minimum Inhibitory Concentration (MIC). As for the experimental part:
as §1, §2

For experiment [8], the system named is E.coli 055. The note with it: Escherichia coli, Mueller Hinton agar, 16 to 18 hours at 37°C, read-out: Minimum Inhibitory Concentration (MIC). As for the experimental part: as §1, §2
The test system of experiment [9] is Str.pyogenes 77A. The note with it: Streptococcus pyogenes, Mueller Hinton agar, 16 to 18 hours at 37°C, read-out: Minimum Inhibitory Concentration (MIC). As for the experimental part:
as §1, §2

Experiment [10] concerns E.coli KN126. To be noted: Escherichia coli, Mueller Hinton agar, 16 to 18 hours at 37°C, read-out: Minimum Inhibitory Concentration (MIC). How it is done:
as §1, §2

Experiment [11] has as its system Ent.cloacae 1321E. To be noted: Enterobacter cloacae, read-out: Minimum Inhibitory Concentration (MIC). How it is done:
as §1, §2

The test system of experiment [12] is E.coli TEM. The note with it: Escherichia coli, read-out: Minimum Inhibitory Concentration (MIC). As for the experimental part:
as §1, §2

Experiment [13] relates to E.coli DC0. To be noted: Escherichia coli, Mueller Hinton agar, 16 to 18 hours at 37°C, read-out: Minimum Inhibitory Concentration (MIC). As for the experimental part: as §1, §2
Experiment [14] relates to Str.faecium D. The note with it: Enterococcus faecium, read-out: Minimum Inhibitory Concentration (MIC). As for the experimental part:
as §1, §2

In experiment [15] the test system is Staph.aureus 285. The note with it: Staphylococcus aureus, Mueller Hinton agar, 16 to 18 hours at 37°C, read-out: Minimum Inhibitory Concentration (MIC). How it is done:
as §1, §2

Experiment [16] has as its system E.coli DC2. The note with it: Escherichia coli, Mueller Hinton agar, 16 to 18 hours at 37°C, read-out: Minimum Inhibitory Concentration (MIC). How it is done:
as §1, §2

Experiment [17] deals with Kl.aerog. 1082E. To be noted: Mueller Hinton agar, 16 to 18 hours at 37°C, read-out: Minimum Inhibitory Concentration (MIC). How it is done:
as §1, §2

The test system of experiment [18] is Kl.aerog. 1522E. To be noted: read-out: Minimum Inhibitory Concentration (MIC). How it is done: as §1, §2
[19] abbreviates: Str.faecium D, Mueller Hinton agar, 16 to 18 hours at 37°C.
Setting [20] is: Kl.aerog. 1522E, Mueller Hinton agar, 16 to 18 hours at 37°C.
Setting [21] is: E.coli 1507E, Mueller Hinton agar, 16 to 18 hours at 37°C.

≈ marks a conversion by molar mass, not a printed value. Where two headings read alike, the source gives them in different places.

Regarding `C[C@@H](O)[C@H]1C(=O)N2C(C(=O)O)=C(c3ccc(Cl)cc3)S[C@H]12` [Example 4-Cl], the MIC was < 0.05 µg/mL in experiment [1]; 0.1 µg/mL (≈ 0.307 µM) in experiment [2]; 0.05 µg/mL (≈ 0.153 µM) in experiment [3]; 50 µg/mL (≈ 153 µM) in [4]; 12.5 µg/mL (≈ 38.4 µM) in [5] (1507E); 6.25 µg/mL (≈ 19.2 µM) in experiment [6]. Moreover, the MIC in experiment [7] was 0.05 µg/mL (≈ 0.153 µM); in experiment [8], 3.13 µg/mL (≈ 9.61 µM); in [9], < 0.05 µg/mL; in experiment [10] it was 12.5 µg/mL (≈ 38.4 µM); in experiment [11] (1321E) it was 6.25 µg/mL (≈ 19.2 µM); in experiment [12], 12.5 µg/mL (≈ 38.4 µM). In addition, the MIC in experiment [13] worked out at 25 µg/mL (≈ 76.7 µM); in experiment [14] (setting [19]) it was 1.56 µg/mL (≈ 4.79 µM); in experiment [15], 0.1 µg/mL (≈ 0.307 µM); in experiment [16], 0.39 µg/mL (≈ 1.2 µM); in experiment [17] it was 0.78 µg/mL (≈ 2.39 µM); in experiment [18], 12.5 µg/mL (≈ 38.4 µM).

In the case of `C[C@@H](O)[C@H]1C(=O)N2C(C(=O)O)=C(c3ccc(F)cc3)S[C@H]12` [Example 4-F], the MIC in [1] is < 0.05 µg/mL; in experiment [2], 0.19 µg/mL (≈ 0.614 µM); in experiment [3], 0.1 µg/mL (≈ 0.323 µM); in experiment [4], 25 µg/mL (≈ 80.8 µM); in experiment [5] (1507E) it was 6.25 µg/mL (≈ 20.2 µM); in [6] it was 3.13 µg/mL (≈ 10.1 µM). Further, the MIC in experiment [7] was 0.19 µg/mL (≈ 0.614 µM); in [8] it was 1.56 µg/mL (≈ 5.04 µM); in experiment [9], < 0.05 µg/mL; in [10], 6.25 µg/mL (≈ 20.2 µM); in experiment [11] (1321E), 3.13 µg/mL (≈ 10.1 µM); in [12] it was 6.25 µg/mL (≈ 20.2 µM). Moreover, the MIC in experiment [13] was 25 µg/mL (≈ 80.8 µM); in [14], 3.13 µg/mL (≈ 10.1 µM); in experiment [15], 0.19 µg/mL (≈ 0.614 µM); in experiment [16], 1.56 µg/mL (≈ 5.04 µM); in experiment [17], 1.56 µg/mL (≈ 5.04 µM); in experiment [18] (setting [20]), 12.5 µg/mL (≈ 40.4 µM).

Consider `C[C@@H](O)[C@H]1C(=O)N2C(C(=O)O)=C(c3ccc(NC=O)cc3)S[C@H]12` [Example 4-NHCHO], for which the MIC in experiment [1] was < 0.013 µg/mL; in experiment [2] it was 0.1 µg/mL (≈ 0.299 µM); in experiment [3], 0.025 µg/mL (≈ 0.0748 µM); in experiment [4], 6.25 µg/mL (≈ 18.7 µM); in experiment [5] (setting [21]) it was 0.39 µg/mL (≈ 1.17 µM); in experiment [7], 0.05 µg/mL (≈ 0.15 µM). The MIC was 0.19 µg/mL (≈ 0.568 µM) in [8]; < 0.013 µg/mL in experiment [9]; 0.39 µg/mL (≈ 1.17 µM) in [10]; 0.39 µg/mL (≈ 1.17 µM) in experiment [11] (Ent.cloacae 1321E, Mueller Hinton agar, 16 to 18 hours at 37°C); 0.39 µg/mL (≈ 1.17 µM) in [12]; 0.78 µg/mL (≈ 2.33 µM) in experiment [13]. For the same molecule, the MIC was 0.78 µg/mL (≈ 2.33 µM) in experiment [14] (setting [19]); 0.1 µg/mL (≈ 0.299 µM) in experiment [15]; 0.19 µg/mL (≈ 0.568 µM) in [16]; 0.19 µg/mL (≈ 0.568 µM) in experiment [17]; 0.39 µg/mL (≈ 1.17 µM) in experiment [18] (setting [20]).

Regarding `CSc1ccc(C2=C(C(=O)O)N3C(=O)[C@H]([C@@H](C)O)[C@H]3S2)cc1` [Example 4-SCH3], the MIC is < 0.05 µg/mL in experiment [1]; 0.19 µg/mL (≈ 0.563 µM) in [2]; 0.1 µg/mL (≈ 0.296 µM) in experiment [3]; 50 µg/mL (≈ 148 µM) in experiment [4]; 25 µg/mL (≈ 74.1 µM) in experiment [5] (setting [21]); 12.5 µg/mL (≈ 37 µM) in [6]. Besides, the MIC is 6.25 µg/mL (≈ 18.5 µM) in experiment [8]; < 0.05 µg/mL in experiment [9]; 12.5 µg/mL (≈ 37 µM) in experiment [10]; 12.5 µg/mL (≈ 37 µM) in experiment [11] (1321E); 25 µg/mL (≈ 74.1 µM) in [12]; 50 µg/mL (≈ 148 µM) in experiment [13]. For the same molecule, the MIC in experiment [14] (setting [19]) was 3.13 µg/mL (≈ 9.28 µM); in experiment [15], 0.19 µg/mL (≈ 0.563 µM); in experiment [16], 0.78 µg/mL (≈ 2.31 µM); in [17], 0.78 µg/mL (≈ 2.31 µM); in experiment [18] (setting [20]) it was 25 µg/mL (≈ 74.1 µM).

In the case of `C[C@@H](O)[C@H]1C(=O)N2C(C(=O)O)=C(c3ccccc3)S[C@H]12` [H], the MIC in experiment [1] was < 0.05 µg/mL; in [2] it was 0.1 µg/mL (≈ 0.343 µM); in experiment [3], 0.1 µg/mL (≈ 0.343 µM); in [4] it was 12.5 µg/mL (≈ 42.9 µM); in [5] (1507E), 1.56 µg/mL (≈ 5.35 µM); in [7], 0.1 µg/mL (≈ 0.343 µM). Besides, the MIC in experiment [8] is 0.78 µg/mL (≈ 2.68 µM); in experiment [9], < 0.05 µg/mL; in experiment [10], 3.12 µg/mL (≈ 10.7 µM); in experiment [11] (1321E) it was 1.56 µg/mL (≈ 5.35 µM); in experiment [12], 1.56 µg/mL (≈ 5.35 µM); in [13], 3.12 µg/mL (≈ 10.7 µM). The MIC in [14] is 1.56 µg/mL (≈ 5.35 µM); in [15], 0.19 µg/mL (≈ 0.652 µM); in [16], 0.39 µg/mL (≈ 1.34 µM); in experiment [17] it was 0.78 µg/mL (≈ 2.68 µM); in experiment [18] it was 1.56 µg/mL (≈ 5.35 µM).

For the origin of these results see patent EP0212404A1, “7-oxo-4-thia-1-azabicyclo [3.2.0] hept-2-ene derivatives” (HOECHST AKTIENGESELLSCHAFT, priority 1985, dated 1987).
